Test systems include RXF 631; 786-0; Hs-578T; MDA-MB-435.
What all share (test): inhibition of tumour cell growth, NCI panel, 48 h

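96-well plates; 48 h exposure; 5 concentrations. Endpoints by linear interpolation between flanking doses. Not reached: highest tested concentration assigned. Abbreviation: GI50, concentration required for 50% inhibition of growth.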 Calls of active or inactive are those of the source. Rule as the data show it: active = GI50 up to about 1.1 µM and inactive = higher. Bounds are passed on as bounds.

Take `Cc1cc(O)c2c(c1)C(=O)c1cc(O)cc(O)c1C2=O` [EMODIN]: the GI50 in the experiment with RXF 631 is 39.3 µM (inactive).

On to `O=C(O)/C=C/c1ccncc1`, for which the GI50 in the experiment on 786-0 is > 100 µM (inactive).

Regarding `O=C1OC(c2ccccc2)=N/C1=C/c1cccs1`, the GI50 was 87.1 µM (inactive) with Hs-578T and > 100 µM (inactive) in the experiment on MDA-MB-435.

Values taken from ChEMBL document CHEMBL1201862, “PubChem BioAssay data set” (2004).
